The text below walks through data of EP4635958A1, “PYRIMIDINE-CONTAINING POLYCYCLIC DERIVATIVE INHIBITOR, AND PREPARATION METHOD THEREFOR AND USE THEREOF” (Shanghai Hansoh Biomedical Co., Ltd., priority 2022, dated 2024).

pIC50: −log10 of the molar value.

One series concerns GP2D. Nature of the series: Inhibition of proliferation of KRAS G12D mutant tumor cell line GP2D (CellTiter-Glo). The settings on record: Homo sapiens, GP2d, 72 h, read-out: GP2D IC50.
The subject of the next series is AsPC-1. Nature of the series: Inhibition of proliferation of KRAS G12D mutant tumor cell line AsPC-1 (CellTiter-Glo). The settings on record: Homo sapiens, ASPC1, about 72 h. The series is classed as cell-based. Here is the method:
1. Experimental objective: The inhibition activity of the example compounds on the proliferation of 5 KRAS G12D mutant cell lines SNU-1, HPAF-II, Panc0403, AsPC-1 and GP2D was determined. 2. Experimental instruments: • 2.1 Instruments: Microplate reader (BioTek Synergy H1); Pipette (Eppendorf & Rainin). • 2.2 Reagents: HPAF-II, PANC0403, AsPC-1 and GP2D were purchased from COBIOER BIOSCIENCES CO., LTD; SNU-1 was purchased from the cell bank of Chinese Academy of Sciences, Cell Titer-Glo was purchased from Promega, with a catalog number of G7573; RPMI 1640 was purchased from Gibco, with a catalog number of 22400089; DMEM was purchased from Gibco, with a catalog number of 11995065; FBS was purchased from Gibco, with a catalog number of 10091148; PBS was purchased from Gibco, with a catalog number of 10010023; trypsin was purchased from Gibco, with a catalog number of 25200056; cell culture plates were purchased from Corning Company, with a catalog number of 3610. 3. Experimental method: When SNU-1, HPAF-II, Panc0403, AsPC-1 or GP2D cells were cultured to the appropriate confluence, and the SNU-1, HPAF-II, Panc0403, AsPC-1 or GP2D cells were collected. The cells were adjusted to the appropriate cell density using complete culture medium, the cell suspension was plated onto a 96-well plate at 90 µL per well, and the plate was placed in the incubator at 37°C and 5% CO2 for adherent culture overnight. Solutions of the compound with different concentrations were formulated using DMSO and culture medium. A vehicle control was set up. The solutions of the compound were added to the 96-well plate at 10 µL per well, and the plate was placed in the incubator at 37°C and 5% CO2 for further culture for about 72 h. Then, CellTiter-Glo solution was added, and the obtained mixture was shaken and mixed evenly, incubated in the dark for 10 min, and read with a BioTek Synergy H1 microplate reader. 4. Experimental data processing method: The luminescence signal value was used to calculate the inhibition rate. Graphpad Prism software was used to fit the concentration and inhibition rate to a nonlinear regression curve, so as to obtain the IC50 value. 5. Experimental results: Table 2: Determination of the inhibition activity of the compounds on the proliferation of KRAS G12D mutant tumor cell line GP2D

Series [1] is described as follows: Pharmacokinetic determination in rats (IV and PO, plasma, LCMS/MS). The series is classed as in vivo, SD rats. The settings on record: male SD rats; for AUC(0-inf): read-out: AUCo-∞; for Cmax: read-out: Cmax; for half-life: read-out: T1/2 (converted); for Tmax: read-out: Tmax. Here is the method:
SD rats were used as test animals to study the pharmacokinetic behavior of the example compounds in rats (plasma) after oral administration.
The example compounds of the present invention, made in house.
3 SD rats per group, male. Shanghai Jiesijie Experimental Animal Co., Ltd., animal production license number (SCXK (Shanghai) 2013-0006 N0.311620400001794).
Formulation of a drug for oral administration: 10% Captisol in 50 mM citrate buffer pH 5.0.
(§1) Formulation of 50 mM citric acid: 4.8 g of citric acid was weighed into a 1000 ml glass bottle, ultrapure water was added to 300 ml, and the mixture was magnetically stirred until completely dissolved, additional ultrapure water was then added to 500 ml to formulate 50 mM citric acid.
(§2) Formulation of a solution containing 50 mM citric acid (10% Captisol, PH = 5): 50 g of Captisol powder was weighed and added to a 1000 ml glass bottle, 300 ml of 50 mM citric acid was added, and the mixture was magnetically stirred until completely dissolved, then additional citric acid was added to 500 ml, and the PH was adjusted to 5 using 10 M NaOH.
The example compounds were weighed and dissolved in the solution and the mixture was shaken well and subjected to ultrasound treatment for 15 min to obtain a colorless clear solution with a concentration of 3 mg/mL.
(§3) Formulation of a drug for intravenous administration: 5%DMSO+10%Solutol HS15+85%PBS.
(§4) The example compounds were weighed, and 5% DMSO was added according to the total administration volume; the mixture was vortexed and sonicated for 2 min to ensure complete dissolution; then, 10% Solutol HS15 was added, and the mixture was vortexed and sonicated for 2 min to achieve complete dissolution; finally, 85% PBS was added, and the mixture was vortexed and sonicated for 5 min; the obtained mixture was filtered through a 0.22 um membrane to obtain a colorless, transparent, and clear solution with a concentration of 0.2 mg/mL.
3 SD rats per group, male; After overnight fasting, the animals were administered orally (PO) at a dose of 30 mg/kg with an administration volume of 10 mL/kg.
3 SD rats per group, male; After overnight fasting, the animals were administered intravenously (IV) at a dose of 1 mg/kg with an administration volume of 5 mL/kg.
0.2 mL of blood was collected from the jugular vein before administration and at 0.25 h, 0.5 h, 1.0 h, 2.0 h, 4.0 h, 6.0 h, 8.0 h, and 24.0 h after administration and placed in an EDTA-2K test tube, and the test tube was centrifuged at 6000 rpm for 6 min at 4°C to separate the plasma, which was stored at -20°C. the animals were fed 4 h after administration.
The final determination results obtained by applying the LCMS/MS method are shown in the table below: Table 8: Pharmacokinetic parameters of the compounds administered intravenously in rats

A short description of series [2]: Pharmacokinetic determination in mice (IV and PO, plasma, LCMS/MS). The series is classed as in vivo, Balb/c mice. The settings on record: for half-life: read-out: T1/2 (converted).
Text: • 1. Study objective: Balb/c mice were used as test animals to study the pharmacokinetic behavior of the compounds in mice (plasma) after oral administration. • 2. Test scheme • 2.1 Test drugs: The example compounds of the present invention, made in house; • 2.2 Test animals: Balb/c mice, male, purchased from Shanghai Jiesijie Experimental Animal Co., Ltd., animal production license number (SCXK (Shanghai) 2013-0006 N0.311620400001794). • 2.3 Drug formulation: Formulation of a drug for oral administration: 10% Captisol in 50 mM citrate buffer pH 5.0.
as §1, §2
The example compounds were weighed and added to a 4 mL glass bottle separately, 2.4 mL of the solution was added and the mixture was subjected to ultrasound treatment for 10 min to obtain a colorless clear solution with a concentration of 3 mg/mL.
as §3, §4
3 Balb/c mice, male; After overnight fasting, the animals were administered orally (PO) at a dose of 30 mg/kg with an administration volume of 10 mL/kg.
3 Balb/C mice, male; After overnight fasting, the animals were administered intravenously (IV) at a dose of 1 mg/kg with an administration volume of 5 mL/kg.
0.04 mL of blood was collected from the orbit before administration and at 0.25 h, 0.5 h, 1 h, 2 h, 4 h, 6 h, 8 h, and 24 h after administration and placed in an EDTA-2K test tube, and the test tube was centrifuged at 6000 rpm for 6 min at 4°C to separate the plasma, which was stored at -20°C; the animals were fed 4 h after administration.
The final determination results obtained by applying the LCMS/MS method are shown in the table below: Table 6: Pharmacokinetic parameters of the compounds administered intravenously in mice

The nature of series [3]: Plasma stability test, rat plasma. The settings on record: Rat plasma, 37°C.
Text: The purpose of this experiment was to detect the stability of the example compounds in plasma of mouse, rat, dog and human.
Liquid chromatography-mass spectrometer, centrifuge, vortexer, pipette, continuous dispenser, 96-well plate, 50% methanol aqueous solution, acetonitrile solution containing internal standard, blank matrix (plasma of rat, dog, or human), Propantheline (propantheline bromide), Mevinolin (lovastatin), and test compound.
After whole blood was collected from animals or humans, it was placed in a test tube containing an anticoagulant and centrifuged at 3500 rpm for 10 min to collect the upper pale yellow plasma.
The compound was weighed and the stock solution was formulated with DMSO and the working solution was formulated with 100 mM phosphate buffer.
2.36 mg of propantheline bromide was weighed and diluted with 1 mL of DMSO into a 10 mM stock solution; 10 µL of 10 mM stock solution was pipetted into 1 mL of 100 mM phosphate buffer to achieve a final concentration of 100 µM.
4.05 mg of lovastatin was weighed and diluted with 1 mL of DMSO into a 10 mM stock solution; 10 µL of 10 mM stock solution was pipetted into 1 mL of 100 mM phosphate buffer to achieve a final concentration of 100 µM.
• 1) In a 96-well plate, 285 µL of plasma and 15 µL of 10 µM compound (test compound) were added in sequence and incubated at 37°C. • 2) 40 µL was taken at 0, 15, 30, 60, 90, and 120 min (the sampling point can be fine-tuned) and 160 µL of acetonitrile stop solution containing internal standard was add. • 3) After centrifugation (3500 rpm, 10 min), 50 µL of supernatant was taken, and 50 µL of DDH2O added for dilution and then the obtained mixture was injected into LC-MS/MS.
• Instruments: Shimadzu LC-20 AD • Chromatographic column: Phenomenex Gemiu ® C18 (50*4.6 mm, 5 µm particle size); • mobile phase: A: Acetonitrile, B: 0.1% formic acid solution 0-8 min: 5% A→95% A, 2.0-2.1 min: 90%A→5% A; Flow rate: 0.8 mL/min; Run time: 5.0 min; Injection volume: 5 µL.
• Instrument: API4000 liquid chromatography-mass spectrometer, AB Company, USA; • the ion source was electrospray ionization source (ESI); • drying gas (N2) temperature was 500°C; • electrospray voltage was 5500V; • the detection method was positive ion detection; • the scanning method was selected reaction monitoring (MRM); • the scanning time was 0.1s.
Setting [4] is: rat, in vivo, PO, 30 mg/kg, overnight fasting, plasma.
The mark [5] stands for this setting: rat, in vivo, IV, 1 mg/kg, overnight fasting, plasma.

Usually pIC50 stands for −log10 of the IC50, conventionally taken in molar units. For orientation: Cmax means the highest concentration seen after dosing. In general, Tmax refers to the time at which the peak concentration occurs. With `[2H]C([2H])([2H])C1Oc2nc(-c3cc(O)cc4ccc(F)c(C#C)c34)c(F)c3nc(OCC4(CN5CCC(=CF)CC5C)CC4)nc(c23)N2CC3CCC(N3)C12` (centres unmarked) [Example 286], the pIC50 in the series on GP2D was 9.49. Also, in the series with AsPC-1, the pIC50 is 8.11. Also, in series [1] (setting [4]), the AUC(0-inf) was found to be 600 ng·h/mL, the Cmax is 50 ng/mL, the half-life was 648 min and the Tmax was 2 h.

For `C#Cc1c(F)ccc2cc(O)cc(-c3nc4c5c(nc(OCC6(CN7CCC(=C(F)F)C[C@@H]7C)CC6)nc5c3F)N3C[C@H]5CC[C@H](N5)[C@H]3[C@H](C)O4)c12` [Example 90], the pIC50 with GP2D is 9.29; with AsPC-1, 8.06.

Turning to `C#Cc1c(F)ccc2cc(O)cc(-c3nc4c5c(nc(OCC6(CN7CCC(=C(F)F)C7)CC6)nc5c3F)N3C[C@H]5CC[C@H](N5)[C@H]3[C@H](C)O4)c12` [Example 130], the values for the pIC50 with GP2D and in the series on AsPC-1 were 9.48 and 8.38, respectively.

`C#Cc1c(F)ccc2cc(O)cc(-c3nc4c5c(nc(OCC6(CN7CCC(=C(F)F)CC7)CC6)nc5c3F)N3C[C@H]5CC[C@H](N5)[C@H]3[C@H](CC)O4)c12` [Example 124, 4-((5S,5aS,6S,9R)-12-((1-((4-(difluoromethylene)piperidin-1-yl)methyl)cyclopropyl)methoxy)-5-ethyl-1-fluoro-5a,6,7,8,9,10-hexahydro-5H-4-oxa-3,10a,11,13,14-pentaaza-6,9-methylnaphtho[1,8-ab]hept-2-yl)-5-ethynyl-6-fluoronaphthalen-2-ol]: the pIC50 with GP2D is 9.01. The F was determined as 23% in series [2] (PO 30 mg/kg vs IV 1 mg/kg, male Balb/c mice) and 18% in series [1] (PO 30 mg/kg vs IV 1 mg/kg). Further, the AUC(0-inf) in series [2] (mouse, in vivo, Balb/c mice, intravenously (IV), 1 mg/kg, plasma, read-out: AUCo-∞) is 374 ng·h/mL; in series [2] (mouse, in vivo, PO, 30 mg/kg, male Balb/c mice, overnight fasting, plasma, read-out: AUC0-∞) it was 2610 ng·h/mL; in series [1] (setting [5]) it was 1110 ng·h/mL; in series [1] (setting [4]), 6170 ng·h/mL. For the same compound, the C0 amounted to 412 ng/mL in series [2] (mouse, in vivo, Balb/c mice, intravenously (IV), 1 mg/kg, plasma, read-out: C0) and 524 ng/mL in series [1] (rat, in vivo, IV, 1 mg/kg, overnight fasting, plasma, read-out: C0). Further, the clearance was found to be 44.6 mL/min/kg in series [2] (mouse, in vivo, Balb/c mice, intravenously (IV), 1 mg/kg, plasma, read-out: CL) and 15 mL/min/kg in series [1] (rat, in vivo, IV, 1 mg/kg, overnight fasting, plasma, read-out: CL). Further, the half-life in series [2] (mouse, in vivo, Balb/c mice, intravenously (IV), 1 mg/kg, plasma) is 690 min; in series [2] (mouse, in vivo, PO, 30 mg/kg, male Balb/c mice, overnight fasting, plasma), 396 min; in series [1] (setting [5]) it was 540 min; in series [1] (setting [4]) it was 408 min. Moreover, the Cmax turned out to be 391 ng/mL in series [2] (mouse, in vivo, PO, 30 mg/kg, male Balb/c mice, overnight fasting, plasma, read-out: Cmax) and 471 ng/mL in series [1] (setting [4]). Moreover, the Tmax is 1 h in series [2] (mouse, in vivo, PO, 30 mg/kg, male Balb/c mice, overnight fasting, plasma, read-out: Tmax) and 6 h in series [1] (setting [4]).

For `[2H]C([2H])(Oc1nc2c3c(nc(-c4cc(O)cc5ccc(F)c(C#C)c45)c(F)c3n1)O[C@@H](C)[C@@H]1[C@@H]3CC[C@H](CN21)N3)C1(C([2H])([2H])N2CCC(=C(F)F)CC2)CC1` [Example 289], the pIC50 in the series with GP2D was 9.55. Moreover, the pIC50 in the series on AsPC-1 is 8.24. In addition, in series [1] (setting [4]), the AUC(0-inf) was 2110 ng·h/mL, the Cmax amounted to 280 ng/mL, the half-life is 378 min and the Tmax was 4 h.

As for `C#Cc1c(F)ccc2cc(O)cc(-c3nc4c5c(nc(OCC6(CN7CCCC(=C(F)F)CC7)CC6)nc5c3F)N3C[C@H]5CC[C@H](N5)[C@H]3[C@H](C)O4)c12` [Example 132], the pIC50 in the series with GP2D is 9.62. The pIC50 with AsPC-1 was 8.31. Moreover, in series [1] (setting [4]), the AUC(0-inf) amounted to 2350 ng·h/mL, the Cmax was 246 ng/mL and the time to peak (Tmax) worked out at 2 h.

Consider `[2H]C([2H])(Oc1nc2c3c(nc(-c4cc(O)cc5ccc(F)c(C#C)c45)c(F)c3n1)O[C@@H](C)[C@@H]1[C@@H]3CC[C@H](CN21)N3)C1(C([2H])([2H])N2CCC(=C(F)F)C[C@H]2C)CC1` [Example 290], for which the values for the pIC50 in the series with GP2D and with AsPC-1 were 9.52 and 8.21, respectively.

Regarding `CC[C@H](C)C(=O)O[C@H]1C[C@@H](C)C=C2C=C[C@H](C)[C@H](CC[C@@H]3C[C@@H](O)CC(=O)O3)[C@H]21` [Lovastatin, lovastatin, reference compound], the “Remaining rate (%) 0 min” value in series [3] (0 min) was found to be 100.00%. Moreover, the “Remaining rate (%) 15 min” value in series [3] (15 min) is 21.15%. For the same compound, the “Remaining rate (%) 30 min” value in series [3] (30 min) stood at 1.77%. Moreover, the “Remaining rate (%) 60 min” value in series [3] (60 min) is on record as 0.36%. Moreover, the “Remaining rate (%) 120 min” value in series [3] (120 min) is listed as 0.30%.
